Laboratory results published in patent publication US8614201B2 (Janssen Pharmaceutica NV, priority 2009, dated 2013).
pIC50: −log10 of the molar value.

Biological target: Human TRPA1 (Homo sapiens, UniProt O75762)
Test: Alternative TRPA1 Ca2+ fluorometry assay (hTRPA1/TREx-HEK293 cells, Fluo-4, FDSS 6000)
Type: cell-based
Design: expressed in transfected cells
Details: Fluo-4-AM, agonist 6,11-dihydro-5H-dibenzo[b,e]azepine-10-carboxylic acid methyl ester 25 nM, procedure used for Examples 184, 190 to 192, 194 to 316
How it was run: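 Tetracycline-induced (50 ng/ml, 24 h) hTRPA1/TREx-HEK293 cells were loaded with Fluo-4-AM and probenecid. Compound (1% DMSO final) was added after a 12 s baseline and the Ca2+ signal followed for 14 min, then 25 nM TRPA1 agonist dibenzazepine carboxylic acid methyl ester was applied. Signal is Em540 (ex 488 nm) relative to the first baseline reading.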

Sequence of Human TRPA1 (O75762 whole entry): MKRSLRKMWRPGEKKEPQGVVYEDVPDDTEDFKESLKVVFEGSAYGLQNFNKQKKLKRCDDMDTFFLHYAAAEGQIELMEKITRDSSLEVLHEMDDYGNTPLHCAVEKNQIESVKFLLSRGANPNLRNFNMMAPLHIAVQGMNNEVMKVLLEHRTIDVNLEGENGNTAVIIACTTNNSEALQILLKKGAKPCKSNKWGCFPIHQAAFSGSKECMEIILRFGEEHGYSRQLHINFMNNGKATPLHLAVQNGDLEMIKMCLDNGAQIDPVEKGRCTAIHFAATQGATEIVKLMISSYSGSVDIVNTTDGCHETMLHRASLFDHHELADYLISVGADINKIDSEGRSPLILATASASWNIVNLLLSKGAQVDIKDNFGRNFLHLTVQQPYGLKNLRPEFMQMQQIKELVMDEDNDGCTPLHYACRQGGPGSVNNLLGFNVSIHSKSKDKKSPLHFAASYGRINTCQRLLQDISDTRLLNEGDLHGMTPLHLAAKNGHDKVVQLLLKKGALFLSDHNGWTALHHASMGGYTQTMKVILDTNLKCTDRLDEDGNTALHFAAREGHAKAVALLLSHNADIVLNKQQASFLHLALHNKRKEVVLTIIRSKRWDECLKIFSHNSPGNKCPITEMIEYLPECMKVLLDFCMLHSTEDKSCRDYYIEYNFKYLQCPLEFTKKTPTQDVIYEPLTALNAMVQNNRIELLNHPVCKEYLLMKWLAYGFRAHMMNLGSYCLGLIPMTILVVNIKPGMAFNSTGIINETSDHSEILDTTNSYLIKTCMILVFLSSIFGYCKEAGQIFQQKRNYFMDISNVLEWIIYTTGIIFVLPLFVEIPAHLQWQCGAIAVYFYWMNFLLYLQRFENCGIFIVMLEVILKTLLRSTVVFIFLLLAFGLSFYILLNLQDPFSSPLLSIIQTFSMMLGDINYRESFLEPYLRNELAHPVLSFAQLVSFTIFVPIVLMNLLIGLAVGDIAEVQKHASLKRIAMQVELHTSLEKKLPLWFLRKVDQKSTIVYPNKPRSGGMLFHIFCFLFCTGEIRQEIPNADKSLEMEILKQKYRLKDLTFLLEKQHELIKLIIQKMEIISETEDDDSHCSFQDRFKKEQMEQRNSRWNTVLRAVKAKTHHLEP

pIC50	Structure (SMILES)
~6.35	O=C(NCc1cc(-c2ccc(C(F)(F)F)cc2)nc(NCCN2CCOCC2)n1)[C@@H]1CCCN1S(=O)(=O)c1ccc(F)cc1 [Example 315, 1-(4-Fluoro-benzenesulfonyl)-pyrrolidine-2S-carboxylic acid [2-(2-morpholin-4-yl-ethylamino)-6-(4-trifluoromethyl-phenyl)-pyrimidin-4-ylmethyl]-amide]
5.84	O=C(NCc1cc(-c2ccc(Br)cc2)nc(NCCN2CCOCC2)n1)[C@@H]1CCCN1S(=O)(=O)c1ccc(F)cc1 [Example 316, 1-(4-Fluoro-benzenesulfonyl)-pyrrolidine-2S-carboxylic acid [6-(4-bromo-phenyl)-2-(2-morpholin-4-yl-ethylamino)-pyrimidin-4-ylmethyl]-amide]
